Reference: publication PMC8938452

Assay: three-component macrocyclisation: bis(chloroacetamide) (1 eq) + diamine (1.2 eq) + CS2 (8 eq); in situ dithiocarbamate formation then S-alkylation (C-S bond, Cl displacement) at both ends, metal-free, no added base, 15 min
Details: the molecule shown is the open-chain precursor, PEG-200, 400.0 mM, 25.0 °C, 0.25 h

SMILES: CCCCN(CCN(CCCC)C(=S)SCC(=O)N(C)CCN(C)C(=O)CCl)C(=S)[S-] [1]
- ring closure, isolated yield (16-membered ring): 61.3%

SMILES: CN(CCN(C)C(=O)CSC(=S)N(C)CCN(C)C(=S)[S-])C(=O)CCl [2]
- ring closure, isolated yield (16-membered ring): 24.1%

SMILES: CN(CCN(C)C(=O)CSC(=S)NCCCNC(=S)[S-])C(=O)CCl [3]
- ring closure, isolated yield (17-membered ring): 78.5%

SMILES: O=C(CCl)NCCCNC(=O)CSC(=S)NCCCNC(=S)[S-] [4]
- ring closure, isolated yield (18-membered ring): 85.3%

SMILES: O=C(CCl)NCCCNC(=O)CSC(=S)NCCCCCCNC(=S)[S-] [5]
- ring closure, isolated yield (21-membered ring): 74.7%

SMILES: O=C(CCl)NCCCNC(=O)CSC(=S)N(CCN(Cc1ccccc1)C(=S)[S-])Cc1ccccc1 [6]
- ring closure, isolated yield (17-membered ring): 69.4%

SMILES: CN(CCN(C)C(=S)SCC(=O)NCCN(C(=O)CCl)c1cccc2ccccc12)C(=S)[S-] [7]
- ring closure, isolated yield (16-membered ring): 84.6%
